Assay [1] has as its target Angiotensin-converting enzyme (Homo sapiens, UniProt P12821). Description: Inhibition of angiotensin-converting enzyme in whole blood by HPLC. It counts as tissue-based.
Assay [2] concerns the target T1, Leukotriene A-4 hydrolase (Cavia porcellus, UniProt P19602).
T1 sequence (P19602 whole entry): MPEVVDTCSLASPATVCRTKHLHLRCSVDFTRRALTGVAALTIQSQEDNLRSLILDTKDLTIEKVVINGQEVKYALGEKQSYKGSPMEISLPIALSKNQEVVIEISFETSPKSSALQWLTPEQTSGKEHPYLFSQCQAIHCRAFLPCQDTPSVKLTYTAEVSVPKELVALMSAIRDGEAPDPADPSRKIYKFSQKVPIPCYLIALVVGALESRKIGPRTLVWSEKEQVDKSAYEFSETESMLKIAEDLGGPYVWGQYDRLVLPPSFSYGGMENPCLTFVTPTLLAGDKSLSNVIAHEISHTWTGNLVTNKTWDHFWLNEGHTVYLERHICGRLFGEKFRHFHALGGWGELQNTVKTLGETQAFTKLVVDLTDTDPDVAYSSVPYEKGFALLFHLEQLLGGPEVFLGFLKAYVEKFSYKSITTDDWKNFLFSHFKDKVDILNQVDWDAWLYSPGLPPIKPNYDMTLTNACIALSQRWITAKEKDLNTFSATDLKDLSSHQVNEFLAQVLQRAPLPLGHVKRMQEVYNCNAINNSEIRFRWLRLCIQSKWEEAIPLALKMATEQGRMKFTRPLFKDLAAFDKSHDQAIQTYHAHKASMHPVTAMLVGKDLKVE
Description: Inhibition of LTA4 hydrolase in guinea pig lung assessed as inhibition of LTB4 production.

The target of assay [3] is Collagenase 3 (Homo sapiens, UniProt P45452). Description: Inhibition of type 3 collagenase.
The target in assay [4] is Aminopeptidase N (Homo sapiens) (UniProt P15144). Description: Inhibition of aminopeptidase M at 100 uM.
Chain of Aminopeptidase N (Homo sapiens) (P15144 whole entry): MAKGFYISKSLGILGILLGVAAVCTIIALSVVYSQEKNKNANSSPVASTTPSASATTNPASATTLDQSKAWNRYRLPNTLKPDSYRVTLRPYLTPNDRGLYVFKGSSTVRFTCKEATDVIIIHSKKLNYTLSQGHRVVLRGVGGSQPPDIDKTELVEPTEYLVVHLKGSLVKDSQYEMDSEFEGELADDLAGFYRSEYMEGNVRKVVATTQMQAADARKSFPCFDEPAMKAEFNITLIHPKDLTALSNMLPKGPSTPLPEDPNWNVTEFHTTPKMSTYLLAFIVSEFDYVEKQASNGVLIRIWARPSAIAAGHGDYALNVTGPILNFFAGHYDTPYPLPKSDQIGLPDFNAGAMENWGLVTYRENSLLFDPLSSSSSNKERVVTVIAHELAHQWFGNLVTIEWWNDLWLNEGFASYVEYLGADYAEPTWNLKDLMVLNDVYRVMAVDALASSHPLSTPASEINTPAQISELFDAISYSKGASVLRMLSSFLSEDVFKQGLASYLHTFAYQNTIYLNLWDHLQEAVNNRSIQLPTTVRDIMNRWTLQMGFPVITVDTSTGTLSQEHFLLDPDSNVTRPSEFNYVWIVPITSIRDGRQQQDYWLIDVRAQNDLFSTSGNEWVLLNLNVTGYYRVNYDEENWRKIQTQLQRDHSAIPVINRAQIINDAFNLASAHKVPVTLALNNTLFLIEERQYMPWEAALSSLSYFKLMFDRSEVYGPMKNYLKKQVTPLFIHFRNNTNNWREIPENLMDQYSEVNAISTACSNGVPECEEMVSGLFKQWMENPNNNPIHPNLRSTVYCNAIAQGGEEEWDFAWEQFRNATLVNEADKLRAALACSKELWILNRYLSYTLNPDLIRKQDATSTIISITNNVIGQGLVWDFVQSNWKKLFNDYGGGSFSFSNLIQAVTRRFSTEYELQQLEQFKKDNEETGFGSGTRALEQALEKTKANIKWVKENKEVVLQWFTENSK
Assay [5] concerns the target T2, Endothelin-converting enzyme 1 (Homo sapiens) (UniProt P42892).
T2 sequence (whole entry): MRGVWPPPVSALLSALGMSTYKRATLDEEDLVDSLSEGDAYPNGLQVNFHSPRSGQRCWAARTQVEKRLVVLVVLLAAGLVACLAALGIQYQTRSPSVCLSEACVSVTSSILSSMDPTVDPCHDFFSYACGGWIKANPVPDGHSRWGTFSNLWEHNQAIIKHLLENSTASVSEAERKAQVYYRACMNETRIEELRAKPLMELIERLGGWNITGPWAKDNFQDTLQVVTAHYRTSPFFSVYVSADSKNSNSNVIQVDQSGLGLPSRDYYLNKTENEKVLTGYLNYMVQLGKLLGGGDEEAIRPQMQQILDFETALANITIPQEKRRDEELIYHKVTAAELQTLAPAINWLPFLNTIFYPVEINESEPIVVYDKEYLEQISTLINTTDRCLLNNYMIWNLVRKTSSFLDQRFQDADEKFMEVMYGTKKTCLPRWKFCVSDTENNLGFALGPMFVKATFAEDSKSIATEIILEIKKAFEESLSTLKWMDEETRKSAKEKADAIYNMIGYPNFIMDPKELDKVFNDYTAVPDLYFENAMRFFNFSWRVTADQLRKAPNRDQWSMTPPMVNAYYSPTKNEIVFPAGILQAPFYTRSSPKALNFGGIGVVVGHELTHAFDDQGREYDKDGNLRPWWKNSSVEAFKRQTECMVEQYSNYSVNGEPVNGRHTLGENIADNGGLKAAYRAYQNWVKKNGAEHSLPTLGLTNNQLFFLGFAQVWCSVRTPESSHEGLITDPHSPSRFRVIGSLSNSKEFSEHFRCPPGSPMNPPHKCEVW
Description: Inhibition of endothelin-converting enzyme 1 at 100 uM.

For assay [6], the target named is T3, Interstitial collagenase (Homo sapiens) (UniProt P03956).
T3 sequence (whole entry): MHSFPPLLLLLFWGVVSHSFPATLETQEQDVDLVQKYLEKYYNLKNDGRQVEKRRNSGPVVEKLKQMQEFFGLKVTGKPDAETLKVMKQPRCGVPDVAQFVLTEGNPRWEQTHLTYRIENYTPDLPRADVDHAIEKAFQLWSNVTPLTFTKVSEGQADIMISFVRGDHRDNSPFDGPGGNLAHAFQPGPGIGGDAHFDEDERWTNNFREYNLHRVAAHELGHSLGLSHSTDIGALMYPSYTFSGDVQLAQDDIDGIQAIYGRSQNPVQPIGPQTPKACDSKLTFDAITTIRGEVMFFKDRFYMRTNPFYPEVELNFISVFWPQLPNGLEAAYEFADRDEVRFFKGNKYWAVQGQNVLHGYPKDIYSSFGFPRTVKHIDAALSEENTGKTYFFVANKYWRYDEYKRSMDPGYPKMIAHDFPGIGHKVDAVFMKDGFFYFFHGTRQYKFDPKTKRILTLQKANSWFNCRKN
Description: Inhibition of type 1 collagenase at 100 uM.

Assay [7] has as its target Neprilysin (Homo sapiens) (UniProt P08473). Description: Inhibition of endopeptidase 24.11 at 100 uM.

Bounds are passed on as bounds.

Here are results for 42 compounds from ChEMBL document CHEMBL1154514, “Synthesis and biological evaluation of N-mercaptoacylcysteine derivatives as leukotriene A4 hydrolase inhibitors” (Bioorg Med Chem Lett, 2009).

What is called inhibition is how much of the control response was suppressed. A high value points to strong suppression.

Chain of Angiotensin-converting enzyme (P12821 whole entry): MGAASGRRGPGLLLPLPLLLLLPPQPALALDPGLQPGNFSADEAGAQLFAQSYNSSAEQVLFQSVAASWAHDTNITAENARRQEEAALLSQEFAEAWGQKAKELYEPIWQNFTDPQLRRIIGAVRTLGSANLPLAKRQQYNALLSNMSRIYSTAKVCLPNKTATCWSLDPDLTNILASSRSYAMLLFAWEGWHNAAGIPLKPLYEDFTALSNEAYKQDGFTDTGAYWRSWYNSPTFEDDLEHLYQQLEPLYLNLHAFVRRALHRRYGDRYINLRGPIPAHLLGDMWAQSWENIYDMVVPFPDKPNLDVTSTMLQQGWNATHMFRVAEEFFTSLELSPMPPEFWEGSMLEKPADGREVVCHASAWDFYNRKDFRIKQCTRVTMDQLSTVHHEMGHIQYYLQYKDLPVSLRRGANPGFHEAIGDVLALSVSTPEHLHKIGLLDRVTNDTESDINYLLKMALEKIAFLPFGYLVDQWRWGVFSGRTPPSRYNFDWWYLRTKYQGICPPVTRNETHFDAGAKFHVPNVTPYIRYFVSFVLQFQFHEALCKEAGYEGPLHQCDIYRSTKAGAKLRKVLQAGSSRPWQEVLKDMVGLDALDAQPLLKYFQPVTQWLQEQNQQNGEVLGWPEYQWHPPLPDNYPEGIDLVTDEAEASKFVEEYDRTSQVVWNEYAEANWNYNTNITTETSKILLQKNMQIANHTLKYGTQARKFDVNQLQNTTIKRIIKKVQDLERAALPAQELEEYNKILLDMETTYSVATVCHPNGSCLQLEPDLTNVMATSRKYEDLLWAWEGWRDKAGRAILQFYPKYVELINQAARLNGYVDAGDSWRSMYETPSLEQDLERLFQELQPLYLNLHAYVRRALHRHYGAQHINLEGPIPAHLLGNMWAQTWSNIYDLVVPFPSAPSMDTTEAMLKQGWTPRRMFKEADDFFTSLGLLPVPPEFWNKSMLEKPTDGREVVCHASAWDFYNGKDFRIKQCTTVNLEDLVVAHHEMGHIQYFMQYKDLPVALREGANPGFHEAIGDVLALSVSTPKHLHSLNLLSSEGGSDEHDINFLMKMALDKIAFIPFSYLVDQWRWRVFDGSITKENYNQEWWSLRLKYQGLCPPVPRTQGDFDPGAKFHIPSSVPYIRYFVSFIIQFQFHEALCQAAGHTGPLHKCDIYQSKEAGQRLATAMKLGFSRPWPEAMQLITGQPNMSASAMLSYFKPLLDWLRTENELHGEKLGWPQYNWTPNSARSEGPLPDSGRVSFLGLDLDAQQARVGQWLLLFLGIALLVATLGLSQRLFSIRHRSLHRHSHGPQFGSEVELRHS
Chain of Neprilysin (Homo sapiens) (P08473 whole entry): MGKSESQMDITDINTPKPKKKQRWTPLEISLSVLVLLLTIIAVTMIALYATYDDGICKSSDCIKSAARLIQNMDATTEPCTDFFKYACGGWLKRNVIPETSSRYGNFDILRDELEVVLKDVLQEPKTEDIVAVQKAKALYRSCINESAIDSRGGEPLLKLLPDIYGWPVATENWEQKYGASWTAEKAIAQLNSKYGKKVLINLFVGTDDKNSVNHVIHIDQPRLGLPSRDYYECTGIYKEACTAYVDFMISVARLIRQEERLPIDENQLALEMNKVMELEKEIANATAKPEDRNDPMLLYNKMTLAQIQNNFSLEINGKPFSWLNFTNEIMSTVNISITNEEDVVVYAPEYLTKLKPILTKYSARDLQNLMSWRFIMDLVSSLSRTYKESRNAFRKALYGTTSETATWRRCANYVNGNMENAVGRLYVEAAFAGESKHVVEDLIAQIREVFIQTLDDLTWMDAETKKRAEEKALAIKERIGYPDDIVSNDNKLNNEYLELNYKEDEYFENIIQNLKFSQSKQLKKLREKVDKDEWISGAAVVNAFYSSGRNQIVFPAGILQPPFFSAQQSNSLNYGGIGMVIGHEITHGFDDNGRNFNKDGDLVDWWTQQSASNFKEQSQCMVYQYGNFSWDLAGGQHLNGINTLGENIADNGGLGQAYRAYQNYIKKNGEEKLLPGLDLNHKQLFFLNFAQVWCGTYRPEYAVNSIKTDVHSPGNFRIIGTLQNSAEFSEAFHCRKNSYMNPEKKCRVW

For the compound `CC(C)c1ccc(CSC(C)(C)[C@H](NC(=O)[C@H](C)CS)C(=O)O)cc1`, the IC50 in assay [1] and in assay [2] (read-out: IC50) was above 10000 nM each time.
`C[C@H](CS)C(=O)N[C@H](CSCc1ccc(N(C)C)cc1)C(=O)O`: in assay [2] (read-out: IC50), the IC50 is above 10000 nM.
Turning to `CC(C)c1ccc(C(SC[C@H](NC(=O)[C@H](C)CS)C(=O)O)C(C)C)cc1` (stereo partly drawn), the IC50 in assay [1] stood at 430 nM; in assay [2] (read-out: IC50) it was 520 nM.
The matching figures for `C[C@H](CS)C(=O)N[C@@H](CSCc1ccccc1)C(=O)O`: 34 nM and above 10000 nM.
For the compound `C[C@H](CS)C(=O)N[C@@H](CCSCc1ccc(N(C)C)cc1)C(=O)O`, in assay [2] (read-out: IC50), the IC50 is above 10000 nM.
`C[C@H](CS)C(=O)N[C@@H](CSCc1ccc(S(C)(=O)=O)cc1)C(=O)O` had an IC50 in assay [1] of 300 nM.
For `C[C@H](CS)C(=O)N[C@@H](CSCc1ccc(C2CCCCC2)cc1)C(=O)O`, the IC50 in assay [1] is 4000 nM; in assay [2] (read-out: pIC50 (converted)) it was 79 nM.
As to `C[C@H](CS)C(=O)N[C@@H](CSC(c1ccccc1)c1ccc(C2CCCCC2)cc1)C(=O)O` (stereo partly drawn), the IC50 in assay [1] was above 10000 nM; in assay [2] (read-out: IC50), 210 nM.
With `Cc1ccc(CSC[C@H](NC(=O)[C@H](C)CS)C(=O)O)cc1`, the IC50 in assay [1] was 240 nM; in assay [2] (read-out: IC50) it was 7200 nM; in assay [2] (read-out: pIC50 (converted)), 7200 nM.
In the case of `CCCCC(SC[C@H](NC(=O)[C@H](C)CS)C(=O)O)c1ccc(C(C)C)cc1` (stereo partly drawn), the values for the IC50 in assay [1] and in assay [2] (read-out: IC50) were 3600 nM and 510 nM, respectively.
Turning to `C[C@H](CS)C(=O)N[C@@H](CSCc1ccc(F)cc1)C(=O)O`, the IC50 was 100 nM in assay [1], above 10000 nM in assay [2] (read-out: IC50) and above 10000 nM in assay [2] (read-out: pIC50 (converted)).
As to `CN(C)c1ccc(CSC[C@H](NC(=O)CCCS)C(=O)O)cc1`, the IC50 in assay [2] (read-out: IC50) was above 10000 nM.
Take `C[C@H](CS)C(=O)N[C@@H](CSCc1ccc(C(C)(C)C)cc1)C(=O)O`: the IC50 in assay [1] is 130 nM; in assay [2] (read-out: pIC50 (converted)) it was 24 nM.
In assay [1], `CCC(SC[C@H](NC(=O)[C@H](C)CS)C(=O)O)c1ccc(C(C)C)cc1` (stereo partly drawn) had an IC50 of 340 nM.
Turning to `CC(C)c1ccc(CSC[C@H](NC(=O)[C@H](C)CS)C(=O)O)cc1`, the IC50 was 300 nM in assay [1] and 200 nM in assay [2] (read-out: pIC50 (converted)).
With `C[C@H](CS)C(=O)N[C@@H](CSCc1cccc(N(C)C)c1)C(=O)O`, in assay [2] (read-out: IC50), the IC50 was above 10000 nM.
For the compound `C[C@H](CS)C(=O)N[C@@H](CSCc1ccc([N+](=O)[O-])cc1)C(=O)O`, the IC50 in assay [1] amounted to 320 nM; in assay [2] (read-out: IC50), 4900 nM.
The matching figures for `CC(C)c1ccc(C(SC[C@H](NC(=O)[C@H](C)CS)C(=O)O)c2ccccc2)cc1` (stereo partly drawn): 1700 nM and 91 nM.
Regarding `CC(C)c1ccc(C(C)(C)SC[C@H](NC(=O)[C@H](C)CS)C(=O)O)cc1`, the IC50 in assay [1] came to 260 nM; in assay [2] (read-out: IC50) it was 79 nM.
In the same order, the values of `C[C@H](CS)C(=O)N[C@@H](CSCc1ccc(C#N)cc1)C(=O)O` are 300 nM and 530 nM.
Turning to `CC(C)c1ccc(C(C)SC[C@H](NC(=O)[C@H](C)CS)C(=O)O)cc1` (stereo partly drawn), the IC50 in assay [1] was 200 nM.
On to `C[C@H](CS)C(=O)N[C@@H](CSCc1ccc(-c2ccccc2)cc1)C(=O)O`, for which the IC50 in assay [1] was 280 nM; in assay [2] (read-out: IC50), 600 nM; in assay [2] (read-out: pIC50 (converted)) it was 79.4 nM.
On to `C[C@@H](S)C(=O)N[C@@H](CSCc1ccc(N(C)C)cc1)C(=O)O`, for which the IC50 in assay [2] (read-out: IC50) is above 10000 nM.
`CCc1ccc(CSC[C@H](NC(=O)[C@H](C)CS)C(=O)O)cc1`: the values for the IC50 in assay [1] and in assay [2] (read-out: pIC50 (converted)) were 21 nM and 280 nM, respectively.
On to `C[C@H](CS)C(=O)N[C@@H](CSC(C)(C)c1ccc(C2CCCCC2)cc1)C(=O)O`, for which the IC50 in assay [1] was found to be 3000 nM.
The same measure, in the same setting: as for `CCN(CC)c1ccc(CSC[C@H](NC(=O)[C@H](C)CS)C(=O)O)cc1`, the figure is 4600 nM.
Regarding `C[C@H](CS)C(=O)N[C@@H](CSCc1ccc(Cl)cc1)C(=O)O`, the IC50 in assay [1] was 250 nM; in assay [2] (read-out: IC50) it was 1700 nM; in assay [2] (read-out: pIC50 (converted)) it was 1700 nM.
As for `CN(C)c1ccc(CSC[C@H](NC(=O)CS)C(=O)O)cc1`, the IC50 in assay [2] (read-out: IC50) worked out at 470 nM.
Turning to `C[C@H](CS)C(=O)N[C@@H](CSCc1ccc(C(F)(F)F)cc1)C(=O)O`, the IC50 was 340 nM in assay [1] and 140 nM in assay [2] (read-out: pIC50 (converted)).
The matching figures for `C[C@H](CS)C(=O)N[C@@H](CSCc1ccc(I)cc1)C(=O)O`: 140 nM and 15 nM.
On to `C[C@H](S)C(=O)N[C@@H](CSCc1ccc(N(C)C)cc1)C(=O)O`, for which, in assay [2] (read-out: IC50), the IC50 was above 10000 nM.
Regarding `C[C@H](CS)C(=O)N[C@@H](CSCc1ccc(OC(F)(F)F)cc1)C(=O)O`, the figures for the IC50 in assay [1] and in assay [2] (read-out: IC50) were 260 nM and 400 nM, respectively.
Turning to `CC(S)CC(=O)N[C@@H](CSCc1ccc(N(C)C)cc1)C(=O)O` (stereo partly drawn), the IC50 in assay [2] (read-out: IC50) came to 7400 nM.
On to `CCOc1ccc(CSC[C@H](NC(=O)[C@H](C)CS)C(=O)O)cc1`, for which the figures for the IC50 in assay [1], in assay [2] (read-out: IC50) and in assay [2] (read-out: pIC50 (converted)) were 340 nM, 640 nM and 640 nM, respectively.
For `C[C@H](CS)C(=O)N[C@@H](CSCc1ccc(Br)cc1)C(=O)O`, the IC50 in assay [1] is 280 nM; in assay [2] (read-out: IC50), 610 nM; in assay [2] (read-out: pIC50 (converted)), 610 nM.
Consider `CN(C)c1ccc(CSC[C@H](NC(=O)CCS)C(=O)O)cc1`, for which the IC50 in assay [2] (read-out: IC50) is above 10000 nM.
With `C[C@H](CS)C(=O)N[C@@H](CSCc1ccc(Oc2ccccc2)cc1)C(=O)O`, the values for the IC50 in assay [1], in assay [2] (read-out: IC50) and in assay [2] (read-out: pIC50 (converted)) were 370 nM, 1700 nM and 1700 nM, respectively.
As to `COc1ccc(CSC[C@H](NC(=O)[C@H](C)CS)C(=O)O)cc1`, the IC50 in assay [1] was 100 nM; in assay [2] (read-out: IC50), 2400 nM; in assay [2] (read-out: pIC50 (converted)), 2400 nM.
`C[C@H](CS)C(=O)N[C@@H](CSCc1ccc(N(C)C)cc1)C(=O)O`: the IC50 entry in assay [3] is “Not Active”; in assay [1], 520 nM; in assay [2] (read-out: IC50) it was 270 nM; in assay [2] (read-out: pIC50 (converted)), 270 nM. Moreover, the inhibition worked out at 42% in assay [4], 8% in assay [5], 3% in assay [6] and 16% in assay [7].
Take `CCCc1ccc(CSC[C@H](NC(=O)[C@H](C)CS)C(=O)O)cc1`: the results for the IC50 in assay [1] and in assay [2] (read-out: pIC50 (converted)) were 210 nM and 72 nM, respectively.
On to `CCCC(SC[C@H](NC(=O)[C@H](C)CS)C(=O)O)c1ccc(C(C)C)cc1` (stereo partly drawn), for which the IC50 in assay [1] worked out at 420 nM; in assay [2] (read-out: IC50) it was 180 nM.
In assay [1], `CSc1ccc(CSC[C@H](NC(=O)[C@H](C)CS)C(=O)O)cc1` had an IC50 of 300 nM.
